Measured values published in patent US20240000721A1, “COMPOSITIONS FOR REDUCTION OF OXIDATIVE STRESS, IMPROVEMENT TO THE IMMUNE SYSTEM, PROMOTION OF HEALTHY CARTILAGE AND/OR ALLEVIATION OF PAIN ACCOMPANYING INFLAMMATORY DISEASES IN RUMINANTS” (DSM IP Assets B.V., priority 2018, published 2024).

System: Brahman steers (Bos indicus)
Assay: Rumen metabolites in rumen fluid of fistulated Brahman steers, quantified by NMR
Assay type: in vivo
Conditions: for Dimethylsulfone in rumen fluid / Trimethylamine in rumen fluid: rumen fluid 3 h post feeding
Text: Eight fistulated Brahman steers (Bos indicus) were randomly allocated to two groups (4 animals per group) and received a forage ad libitum diet (Rhode grass hay (Chloris […]), chemical composition: DM, 917 g/kg fresh matter; in g/kg of DM: OM, 806; CP, 169; NDF, 661; ADF, 359; ADL, 46; ash, 116 and GE 17.38 MJ/kg). […] Animals were adapted to the diet over a 21 d period. After that initial period, experimental animals were placed into individual pens in an animal house for the measurement of intakes (10 d) and were treated with cyclodextrin (2 g/100 kg LW) and molasses (60 mL/d). On the last 2 days animals were placed into open-circuit respiration chambers for collection of rumen samples. […] PDMN was provided to the animals mixed with molasses (60 mL/day, molasses were previously diluted in water: 1:4 water:molasses) and mixed with the hay at three different times: 0 h, 3 h and 5 h after the feed was offered. […] On days 20 and 21 of treatment both groups were placed in open-circuit respiration chambers for rumen fluid collection. Rumen fluid samples (approx. 60 mL per animal) were collected using a probe with 2 layers of cheesecloth through the cannula of the animal at 3 h post feeding, during confinement in respiration chambers to determine rumen metabolites.

[1] = 21 days treatment compared with control period

Row | Compound | Dimethylsulfone in rumen fluid (2.5 g PDMN/animal/day (10% on silicon dioxide) for 21 days, control period 20) | Trimethylamine in rumen fluid (2.5 g PDMN/animal/day (10% on silicon dioxide) for 21 days, control period 334) | Effect on dimethylsulfone and trimethylamine in rumen fluid (in words) [1] | Effect on dimethylsulfone and trimethylamine in rumen fluid (in words) (21 days treatment compared with control period, listed as propanediolediol mononitrate) | Dimethylsulfone in rumen fluid (1.6 g chloroform-CD/100 kg LW for 21 days, control period 21) | Trimethylamine in rumen fluid (1.6 g chloroform-CD/100 kg LW for 21 days, control period 564) | Effect on the methyl donor dimethylsulfone and triethylamine in rumen fluid (in words) [1]
1 | O=[N+]([O-])OCCCO [PDMN, 1,3-propanediol mononitrate] | 113 μmol/L rumen fluid | 1242 μmol/L rumen fluid | statistically significant increase | particularly effective |  |  | 
2 | ClC(Cl)Cl [Chloroform, chloroform, reference compound] |  |  |  |  | 80 μmol/L rumen fluid | 828 μmol/L rumen fluid | statistically significant increase
